Here are results for one substance from patent US20250129370A1, “METHOD FOR REDUCING HEPATIC TRIGLYCERIDES” (ADAERATA, LIMITED PARTNERSHIP, priority 2022, published 2025).

In one series the test system is PCSK7 mRNA. Briefly: PCSK7 mRNA qPCR after miRNA overexpression in Huh7 cells. The format is cell-based, human. The note with it: Huh7, 48 hours following transfection, vs mock vector. The procedure:
RNA was isolated from the cells with the TRIzol™ Reagent (Invitrogen, USA) according to the manufacturer's instructions. The RNA samples were treated with RNase-free DNase I (Fermentas, USA) to eliminate any possible DNA contamination. Reverse transcription was performed using the PrimeScript™ First Strand cDNA Synthesis Kit (Takara, Japan) following the manufacturer's protocol. Briefly, one unit of the DNase I enzyme, 1 μL of a buffer, and 1 μg of total RNA were incubated for 30 minutes at 37° C. Then, 1 μL of 50 mM EDTA was added for enzyme inactivation and incubated at 65° C. for 10 minutes. Subsequently, 5 μL of DNase-treated RNA was added to the mix of 0.5 μL of the reverse-transcriptase enzyme, 2 μL of the reverse-transcriptase buffer, and 1 μL of a random hexamer and incubated for 15 minutes at 37° C., followed by 5 seconds at 85° C. for enzyme inactivation. Stem-loop RT-qPCR method was applied for evaluating the expression of miRNAs (Kramer, 2011). […]
All the reactions were repeated in duplicates. Next, melt curves were analyzed, with the mean threshold cycles used for further analyses. The relative expressions of the miRNAs and PCSK7 to RNU48 small nuclear RNA and/or GAPDH and β2m were calculated, respectively, via the 2-ΔΔCt method. […]

For the next series, the system named is PC7. As to the kind of experiment: PC7 shedding of hTfR1 into the media, Huh7 cells. The format is cell-based, human. The note with it: Huh7, 2×, 3× and 5× miR-125a-5p vector. The procedure:
FIGS. 32A-B Western blot (FIG. 32A) and quantitative (FIG. 32B) analysis of human PC7 and TFR1 expression in Huh7 cells, in which miR-125-5p was overexpressed. […] X stands for vector DNA fold for miR-125-5p compared to vector expressing PC7. Because both PC7-V5 and hTfR1-V5 were V5-tagged, the WB using a mAb-V5 reflects the expression of both proteins.
In the next step, the effect of miR-125a-5p on PC7 function was determined. First, the miR-125a-5p-overexpressing vector and its related mock plasmids were co-transfected with the pIRES vector (Invitrogen, USA), containing the full length of cDNA encoding the PCSK7 mRNA with the complete 3′-UTR in Huh7 cells. […] Thereafter, the impact of miR-125a-5p on the enzymatic function of PC7 was assessed by co-transfecting Huh7 cells with the miR-125a-5p-overexpressing vector, with that coding for the full length of PCSK7, and a plasmid encoding hTfR1 (Guillemot et al., 2013; Durand et al., 2020). […]
Subsequently, proteins were isolated with an ice-cold RIPA buffer (1×), comprising 50 mM of Tris hydrochloride (pH 8), 150 mM of sodium chloride, 0.1% sodium dodecyl sulfate, 1% Nonidet P40, 0.25% sodium deoxycholate, and a cocktail of protease inhibitors (Roche, Oakville, ON, Canada). […] Subsequently, immunoreactive bands (the signal) were visualized with an enhanced chemiluminescent reaction kit (Bio-Rad, USA) and recorded via chemiluminescence. […]

For “miR-125a-5p: miRNA targeting PCSK7 3′-UTR and exons 14 and 15, overexpressed from pEGFP-C1 precursor vector (UCCCUGAGACCCUUUAACCUGUGA; miRNA expressed from a pEGFP-C1 precursor vector, further chemistry not given here)”, in the series with PCSK7 mRNA, the “effect on expression of PCSK7 mRNA” value is “did not reach statistical significance”. The “ability of PC7 to shed hTfR1 into the media” value with PC7 is “led to a decline”.
